Columns and labels:
[1] = tested on: Primary rabbit TSPC; assay: TSPC cell proliferation assay (fluorometric kit); format: cell-based; details: 10 μM peptide, low serum media, PDSP solvent (DMSO) set as 100%, mean±SE of three experiments
Experimental: Primary rabbit TSPC were cultured to near-confluence in a 75T cell culture flask and then verified by immunostaining of a TSPC marker, nucleostemin (>98%; green color). Nuclei were stained with Hoechst 33258 (blue color) and visualized by an epifluorescence microscopy. The nucleostemine-positive TSPC were treated with 10 μM 29-mer or its variants for 24 h. The numbers of TSPC after 24-h expansion were detected with a cell proliferation assay kit (BioVision; catalog number: K307). The TSPC treated with PDSP solvent was set as 100%. Results are expressed as mean±SE of three independent experiments.
(§1) Achilles tendons from New Zealand White rabbits (6-8 months old, 3.0-4.0 kg) were used in this study. Achilles tendons were washed two times with sterile phosphate-buffered saline (PBS) containing 50 μg/ml gentamicin. The tendon and tendon sheath were cut into small pieces (1-2 mm^3). Each 100 mg of fragment was then digested in a solution containing 3 mg/ml of type I collagenase and 4 mg/ml of dispase in 1 ml balance salt solution (BSS; Alcone) at 37° C. for 4 hours. The digested tissues were washed three times with PBS and collected by centrifugation (800 g for 10 min). The digested tissues were placed in tissue-culture plates (Falcon Labware; NJ, USA) and resuspended in high-glucose DMEM supplemented with 10% FBS and 50 μg/ml gentamycin, and maintained at 37° C. with 5% CO2. After 5 days, the medium was changed to remove the loosened tissue residues. Subsequently, tendon cells were incubated with 10% FBS medium for 2 days, and then cultured with a basal medium (2% FBS, 1% ITSE, 300 μg/ml L-glutamine, 1% antibiotic-antimicotic solutions) for further 10 days. Culture medium was changed every 3 days. For passage, tendon cells were harvested with 0.25% trypsin/EDTA, cell counting by haemocytometer, approximately 5×10^3 cells were seeded in each well of a 96-well cell culture plate or 2×10^5 cells were seeded in each well of a 6-well cell culture plate for 24 h. These expanded tendon cells were then treated with 10 μM 29-mer or its variants in fresh basal medium for further 24 h and subjected to cell proliferation assay and western blot analysis, respectively.
Cell Proliferation Assay Kit (Fluorometric) was purchased from BioVision (Catalog #: K307) and used to evaluate cell proliferation according to the manufacturer's recommendations. The fluorescence was read at 480 nm for excitation and 538 nm for emission on a SPECTRAmax GEMINI XS fluorescence microplate spectrophotometer (Molecular Devices, Sunnyvale, Calif., USA).
Rabbit TSPC isolation was described above. TSPC in low serum media were treated with 10 μM of one of the 29-mer variants for 24 h. Cell proliferation was examined by a cell proliferation kit based on a kit provided nuclear dye that specifically binds to nucleic acid in the cell and generates green fluorescence.

[2] = tested on: cyclin D1; assay: Western blot analysis of cyclin D1 expression in TSPC; format: cell-based, rabbit; details: TSPC treated 24 h; compared with solvent-treated cells; normalized to β-actin
Experimental: Primary rabbit TSPC were treated with 10NM 29-mer or its variants for 24 h. Representative blots (A) and densitometric analysis with the SD (B) from three independent experiments are shown. Cyclin D1 expression was normalized to ([…]. *P<0.01 vs. solvent-treated cells. ^#P<0.05 vs. 29-mer-treated cells.
as §1
Cell lysis, SDS-PAGE, and antibodies used for immunoblotting were performed as described (Ho et al., 15-deoxy-Delta(12,14)-prostaglandin J2 induces vascular endothelial cell apoptosis through the sequential activation of MAPKS and p53. J Biol. Chem., 2008; 283(44): 30273-30288). The band intensity in immunoblot was evaluated with a Model GS-700 imaging densitometer (Bio-Rad Laboratories, Hercules, Calif.) and analyzed using Labworks 4.0 software.
However, the 29-mer effect on cyclin D1 protein induction was almost abolished by alanine/glycine replacement at residue S93, A96, Q98, 1103, 1104 and R106, respectively (1.3±0.1, 1.5±0.3, 1.3±0.1, 0.9±0.1, 1.3±0.2, and 1.0±0.3). […] The data also imply that the PDSP at positions Ser93, Ala96, Gln98, Ile103, Ile104, and Arg106 are important for sustaining the PDSP effect on induction of TSPC proliferation.

[3] = tested on: CD146-positive TSPC; assay: CD146 immunostaining of TSPC in injured Achilles tendon; format: in vivo, rat; details: 1 week after wounding; peptide/alginate gel; vehicle/alginate 38.3±7.8
Experimental: (A) Representative CD146-stained longitudinal sections. (Original magnification×200). (B) The number of CD146-positive TSPC per 200×field of view on injured tendon sections. Data are reported as mean±SE. Total CD146^+ cells were evaluated from 6 sections/tendon specimen, with 3 rats in each group. *P<0.001 versus vehicle/alginate-treated tendon; #p <0.001 versus 29-mer/alginate-treated tendon.
To investigate the effects of the 29-mer peptide on tendon healing, a rat model of Achilles tendon injury was established as reported by Orhan et al. (The effect of extracorporeal shock waves on a rat model of injury to tendon Achilles. A histological and biomechanical study. J. Bone Joint Surg. Br. 2004;.86(4):.613-618). Adult 10-week-old male Sprague-Dawley rats (initial body weight=312±11 g) were anesthetized by an intraperitoneal injection of xylazine (10 mg/kg). Then, the left tendo Achilles injury was created by full-thickness insertion of an 18-G needle through tendo Achilles 1 cm proximal to the calcaneum attachment site. This created a horizontal wound that was flanked by intact tendon tissue to prevent the retraction of severed ends. […]
CD146 is one of the TSPC markers. […] To test the mechanism of the 29-mer-induced tendon repair, CD146 immunostaining of TSPC located at injured tendon was measured, at 1 week after wounding. […]

[4] = tested on: cultured tendon stem/progenitor cells (TSPC); details: peptide added in culture medium; previous study; cited from earlier work
[5] = tested on: tendon rupture; details: rat model; previous study; cited from earlier work

Sequence: SLGAEQRTESIIHRALYYDLISSPDIHGT (listed as Homo sapiens) [29-mer, PEDF-derived short peptide, human PEDF residues 93-121]
- TSPC proliferation (numbers of TSPC after 24-h expansion) [1]: 135±6.1%
- induction of the cyclin D1 protein [2]: 2.9±0.5 fold
- number of CD146-positive TSPC on injured tendon sections [3]: 86.8±6.0 cells per 200× field
- induction of cultured TSPC proliferation [4]: able to induce cultured tendon stem/progenitor cells (TSPC) proliferation
- healing of tendon rupture [5]: facilitated healing of tendon rupture

— patent US20210244791A1, “APPLICATION OF PEDF-DERIVED SHORT PEPTIDES IN TENDON HEALING” (BRIM Biotechnology, Inc., priority 2018, published 2021)
